{"source": "paper PMC9739371", "about": "“Deciphering the Binding of the Nuclear Localization Sequence of Myc Protein to the Nuclear Carrier Importin α3” (International Journal of Molecular Sciences, 2022)", "experiment": "Translational diffusion NMR (DOSY)", "assay_type": "physicochemical", "conditions": "500 MHz, 10 °C, 1.8 mM peptide, 100 mM sodium phosphate pH 7.0, 100% D2O, 1% dioxane as reference", "method": "The NMR spectra were acquired at 10 °C on a Bruker Avance 500 MHz spectrometer (Bruker GmbH, Karlsruhe, Germany), equipped with a triple resonance probe and z-pulse field gradients. Spectra were processed with Bruker TopSpin 2.1 (Bruker GmbH, Karlsruhe, Germany). […] Spectra were calibrated with 3-(trimethylsilyl) propionic acid-2,2,3,3-^2H4-sodium salt (TSP), by considering pH-dependent changes of its chemical shifts; the probe temperature was calibrated with pure methanol [49].\nMeasurements of the translational self-diffusion coefficient, D, were performed with the pulsed-gradient spin-echo sequence in the presence of 100% D2O. […] The gradient strength was varied in sixteen linear steps between 2% to 95% of the total power of the gradient coil. Gradient strength was calibrated by using the value of D for the residual proton water signal in a sample containing 100% D2O, in a 5-mm tube [51]. The length of the gradient was 2.5 ms; the time between two pulse gradients in the pulse sequence was 250 ms; and the recovery delay between the bipolar gradients was 100 µs. […] A final concentration of 1% of dioxane, which was assumed to have a hydrodynamic radius Rh = 2.12 Å [51], was added to the solution.", "data": [{"smiles": "C1COCCO1", "note": "[dioxane]", "values": [{"measurement": "translational diffusion coefficient D", "value": "5.3 ± 0.6 × 10^−6 cm^2 s^−1"}]}]}
